The results in this text go back to patent publication US20080188481A1 (priority 2002, published 2008).

The structures appear in SMILES notation.

The test system of this assay is HIV-1 single-round infectious reporter virus. Put plainly: Single-round infectious HIV-1 luciferase reporter virus infection of HeLa CD4 cells (antiviral EC50). Format: cell-based. As to conditions: Human immunodeficiency virus 1, HeLa, 72 h, read-out: EC50 Group from Table 1. How it is done:
• Virus production—Human embryonic Kidney cell line, 293T, was propagated in Dulbecco's Modified Eagle Medium (Invitrogen, Carlsbad, Calif.) containing 10% fetal Bovine serum (FBS, Sigma, St. Louis, Mo.). • Virus infection—Human epithelial cell line, HeLa, expressing the HIV-1 receptor CD4 was propagated in Dulbecco's Modified Eagle Medium (Invitrogen, Carlsbad, Calif.) containing 10% fetal Bovine serum (FBS, Sigma, St. Louis, Mo.) and supplemented with 0.2 mg/mL Geneticin (Invitrogen, Carlsbad, Calif.). Virus-Single-round infectious reporter virus was produced by co-transfecting human embryonic Kidney 293 cells with an HIV-1 envelope DNA expression vector and a proviral cDNA containing an envelope deletion mutation and the luciferase reporter gene inserted in place of HIV-1 nef sequences (Chen et al, Ref. 41). Transfections were performed using lipofectAMINE PLUS reagent as described by the manufacturer (Invitrogen, Carlsbad, Calif.).
• 1. HeLa CD4 cells were plated in 96 well plates at a cell density of 1×10^4 cells per well in 100 μl Dulbecco's Modified Eagle Medium containing 10% fetal Bovine serum and incubated overnight. • 2. Compound was added in a 2 μl dimethylsulfoxide solution, so that the final assay concentration would be ≦10 μM. • 3. 100 μl of single-round infectious reporter virus in Dulbecco's Modified Eagle Medium was then added to the plated cells and compound at an approximate multiplicity of infection (MOI) of 0.01, resulting in a final volume of 200 μl per well. • 4. Virally-infected cells were incubated at 37 degrees Celsius, in a CO2 incubator, and harvested 72 h after infection. • 5. Viral infection was monitored by measuring luciferase expression from viral DNA in the infected cells using a luciferase reporter gene assay kit, as described by the manufacturer (Roche Molecular Biochemicals, Indianapolis, Ind.). Infected cell supernatants were removed and 50 μl of lysis buffer was added per well. After 15 minutes, 50 μl of freshly-reconstituted luciferase assay reagent was added per well. Luciferase activity was then quantified by measuring luminescence using a Wallac microbeta scintillation counter. • 6. The percent inhibition for each compound was calculated by quantifying the level of luciferase expression in cells infected in the presence of each compound as a percentage of that observed for cells infected in the absence of compound and subtracting such a determined value from 100. • 7. An EC50 provides a method for comparing the antiviral potency of the compounds of this invention. The effective concentration for fifty percent inhibition (EC50) was calculated with the Microsoft Excel Xlfit curve fitting software. For each compound, curves were generated from percent inhibition calculated at 10 different concentrations by using a four paramenter logistic model (model 205). Table 1 is the key for the data in Table 2.
With `COc1ncc(OC)c2c(C(=O)C(=O)N3CCC(=Cc4ccccc4)CC3)c[nH]c12` [Example 13], the EC50 was > 5000 nM.

Consider `COc1ccc(C(=C2CCN(C(=O)C(=O)c3c[nH]c4c(OC)ncc(OC)c34)CC2)c2ccccc2)cc1` [Example 62], for which the EC50 was < 1000 nM.

In the case of `COc1ncc(OC)c2c(C(=O)C(=O)N3CCC(=C(C)c4ccccc4)CC3)c[nH]c12` [Example 8], the EC50 was < 1000 nM.

Regarding `N#CC(=C1CCN(C(=O)C(=O)c2c[nH]c3c(-n4ccc(N)n4)ncc(F)c23)CC1)c1ccccc1` [Example 111, (1-{2-[7-(3-Amino-pyrazol-1-yl)-4-fluoro-1H-pyrrolo[2,3-c]pyridin-3-yl]-2-oxo-acetyl}-piperidin-4-ylidene)-phenyl-acetonitrile], the EC50 is < 1000 nM.

Take `COc1cnc(-n2ccc(C)n2)c2[nH]cc(C(=O)C(=O)N3CCC(=C(c4ccccc4)c4cccc(F)c4)CC3)c12` [Example 98]: the EC50 is < 1000 nM.

In the case of `O=C(C(=O)N1CCC(=C(c2ccccc2)c2ccccc2)CC1)c1c[nH]c2ccccc12` [Example 4], the EC50 lay within 1000 to 5000 nM.

For `COc1cnc(-n2cnc(C)n2)c2[nH]cc(C(=O)C(=O)N3CCC(=C(c4ccccc4)c4cnn(Cc5ccccc5)c4)CC3)c12` [Example 143, 1-[4-(1-Phenyl-1-(1-benzylpyrazol-4-yl)-methylene)-piperidin-1-yl]-2-(4-methoxy-7-(3-methyl-1,2,4-triazol-1-yl)-6-azaindol-3-yl)-ethane-1,2-dione], the half-maximal effective concentration (EC50) was < 1000 nM.

With `COc1cnc(-n2ccnn2)c2[nH]cc(C(=O)C(=O)N3CCC(=C(c4ccccc4)c4nnc(C5CC5)o4)CC3)c12` [Example 76, 1-[4-(1-Phenyl-1-(5-cyclopropyl-1,3,4-oxadiazol-2-yl)-methylene)-piperidin-1-yl]-2-[4-methoxy-7-(1,2,3-triazol-1-yl)-6-azaindol-3-yl]-ethane-1,2-dione], the EC50 was < 1000 nM.

For the molecule `COc1cnc(-n2ccnn2)c2[nH]cc(C(=O)C(=O)N3CCC(=C(c4ccccc4)c4cnn(Cc5ccccc5)c4)CC3)c12` [Example 144, 1-[4-(1-Phenyl-1-(1-benzylpyrazol-4-yl)-methylene)-piperidin-1-yl]-2-(4-methoxy-7-(1,2,3-triazol-1-yl)-6-azaindol-3-yl)-ethane-1,2-dione], the EC50 was < 1000 nM.

Consider `COc1cnc(-n2cnc(C)n2)c2[nH]cc(C(=O)C(=O)N3CCC(=C(c4ccccc4)c4cccc(CO)c4)CC3)c12` [Example 84, 1-[4-(1-Phenyl-1-(3-hydroxymethylphenyl)-methylene)-piperidin-1-yl]-2-[4-methoxy-7-(3-methyl-1,2,4-triazol-1-yl)-6-azaindol-3-yl]-ethane-1,2-dione], for which the EC50 is < 1000 nM.

As for `COc1cnc(-c2cnccn2)c2[nH]cc(C(=O)C(=O)N3CCC(=C(Br)c4ccccc4)CC3)c12` [Example 89], the EC50 is < 1000 nM.

On to `COc1cnc(-n2ccnn2)c2[nH]cc(C(=O)C(=O)N3CCC(=C(c4ccccc4)c4nnc(C(C)C)o4)CC3)c12` [Example 75, 1-[4-(1-Phenyl-1-(5-isopropyl-1,3,4-oxadiazol-2-yl)-methylene)-piperidin-1-yl]-2-[4-methoxy-7-(1,2,3-triazol-1-yl)-6-azaindol-3-yl]-ethane-1,2-dione], for which the half-maximal effective concentration (EC50) was < 1000 nM.

Turning to `CCc1nnc(C(=C2CCN(C(=O)C(=O)c3c[nH]c4c(-n5ccnn5)ncc(OC)c34)CC2)c2ccccc2)o1` [Example 74, 1-[4-(1-Phenyl-1-(5-ethyl-1,3,4-oxadiazol-2-yl)-methylene)-piperidin-1-yl]-2-[4-methoxy-7-(1,2,3-triazol-1-yl)-6-azaindol-3-yl]-ethane-1,2-dione], the EC50 was < 1000 nM.

`N#CC(=C1CCN(C(=O)C(=O)c2c[nH]c3c(-c4cncc(N)n4)ccnc23)CC1)c1ccccc1` [Example 106, (1-{2-[7-(6-Amino-pyrazin-2-yl)-1H-pyrrolo[3,2-b]pyridin-3-yl]-2-oxo-acetyl}-piperidin-4-ylidene)-phenyl-acetonitrile]: the EC50 was < 1000 nM.

`COc1cnc(-n2cnc(C)n2)c2[nH]cc(C(=O)C(=O)N3CCC(=C(c4ccccc4)c4nnc(O)o4)CC3)c12` [Example 83, 1-[4-(1-Phenyl-1-(5-hydroxy-1,3,4-oxadiazol-2-yl)-methylene)-piperidin-1-yl]-2-[4-methoxy-7-(3-methyl-1,2,4-triazol-1-yl)-6-azaindol-3-yl]-ethane-1,2-dione]: the EC50 was < 1000 nM.

Take `COc1ncc(OC)c2c(C(=O)C(=O)N3CCC(=C(C#N)c4cncs4)CC3)c[nH]c12` [Example 124, 1-[4-(1-Cyano-1-thiazol-5-yl-methylene)-piperidin-1-yl]-2-(4,7-dimethoxy-6-azaindol-3-yl)-ethane-1,2-dione]: the EC50 is < 1000 nM.

With `COc1ncc(OC)c2c(C(=O)C(=O)N3CCC(=C(c4ccccc4)c4nnc(C(F)(F)F)o4)CC3)c[nH]c12` [Example 53, 1-[4-(1-Phenyl-1-(5-trifluoromethyl-1,3,4-oxadiazol-2-yl)-methylene)-piperidin-1-yl]-2-(4,7-dimethoxy-6-azaindol-3-yl)-ethane-1,2-dione], the EC50 is < 1000 nM.

Consider `COc1cnc(-n2ccnn2)c2[nH]cc(C(=O)C(=O)N3CCC(=C(c4ccccc4)c4nnc(C)o4)CC3)c12` [Example 73, 1-[4-(1-Phenyl-1-(5-methyl-1,3,4-oxadiazol-2-yl)-methylene)-piperidin-1-yl]-2-[4-methoxy-7-(1,2,3-triazol-1-yl)-6-azaindol-3-yl]-ethane-1,2-dione], for which the EC50 is < 1000 nM.

With `COc1ncc(OC)c2c(C(=O)C(=O)N3CCC(=C(C#N)c4coc5ccccc45)CC3)c[nH]c12` [Example 127, 1-[4-(1-Cyano-1-benzofuran-3-yl-methylene)-piperidin-1-yl]-2-(4,7-dimethoxy-6-azaindol-3-yl)-ethane-1,2-dione], the EC50 was < 1000 nM.

For the molecule `COc1cnc(Cl)c2[nH]cc(C(=O)C(=O)N3CCC(=C(C(N)=O)c4ccccc4)CC3)c12` [Example 48], the EC50 was 1000 to 5000 nM.

With `COc1cnc(-c2cnccn2)c2[nH]cc(C(=O)C(=O)N3CCC(=C(c4ccccc4)c4cccnc4)CC3)c12` [Example 71, 1-[4-(1-Phenyl-1-(pyridin-3-yl)-methylene)-piperidin-1-yl]-2-(4-methoxy-7-pyrazinyl-6-azaindol-3-yl)-ethane-1,2-dione], the EC50 is < 1000 nM.

Regarding `N#CC(=C1CCN(C(=O)C(=O)c2c[nH]c3c(-c4cnccn4)ccnc23)CC1)c1ccccc1` [Example 102, {1-[2-Oxo-2-(7-pyrazin-2-yl-1H-pyrrolo[3,2-b]pyridin-3-yl)-acetyl]-piperidin-4-ylidene}-phenyl-acetonitrile], the EC50 is < 1000 nM.

As to `COc1cnc(-n2ccnn2)c2[nH]cc(C(=O)C(=O)N3CCC(=C(c4ccccc4)c4cnn(C)c4)CC3)c12` [Example 142, 1-[4-(1-Phenyl-1-(1-methylpyrazol-4-yl)-methylene)-piperidin-1-yl]-2-(4-methoxy-7-(1,2,3-triazol-1-yl)-6-azaindol-3-yl)-ethane-1,2-dione], the EC50 was < 1000 nM.

On to `CC1CN(C(=O)C(=O)c2c[nH]c3ccccc23)CC/C1=C\c1ccccc1` (stereo not drawn) [Example 14], for which the EC50 is 1000 to 5000 nM.

For the molecule `CCOC(=O)c1cc(C(=C2CCN(C(=O)C(=O)c3c[nH]c4c(-n5cnc(C)n5)ncc(OC)c34)CC2)c2ccccc2)n[nH]1` [Example 87], the EC50 was < 1000 nM.

Regarding `COc1ncc(OC)c2c(C(=O)C(=O)N3CCC(=C(c4ccccc4)c4cnccn4)CC3)c[nH]c12` [Example 56], the EC50 was < 1000 nM.

Turning to `COc1ncc(OC)c2c(C(=O)C(=O)N3CCC(=C(c4ccccc4)c4ncco4)CC3)c[nH]c12` [Example 61], the EC50 is < 1000 nM.

In the case of `COc1ncc(OC)c2c(C(=O)C(=O)N3CCC(=C(C#CC(=O)O)c4ccccc4)CC3)c[nH]c12` [Example 119, 1-[4-(1-Phenyl-1-(2-carboxyethyn-1-yl)-methylene)-piperidin-1-yl]-2-(4,7-dimethoxy-6-azaindol-3-yl)-ethane-1,2-dione], the EC50 was < 1000 nM.

On to `COc1ncc(OC)c2c(C(=O)C(=O)N3CCC(=C(c4ccccc4)S(C)(=O)=O)CC3)c[nH]c12` [Example 12], for which the EC50 was 1000 to 5000 nM.

Regarding `COc1cnc(-n2cnc(C)n2)c2[nH]cc(C(=O)C(=O)N3CCC(=C(c4ccccc4)c4cncc(CO)c4)CC3)c12` [Example 120, 1-[4-(1-Phenyl-1-(5-hydroxymethylpyridin-3-yl)-methylene)-piperidin-1-yl]-2-[4-methoxy-7-(3-methyl-1,2,4-triazol-1-yl)-6-azaindol-3-yl]-ethane-1,2-dione], the EC50 was < 1000 nM.
